The record followed here is paper PMC3388883, “Parallel and four-step synthesis of natural-product-inspired scaffolds through modular assembly and divergent cyclization” (Beilstein Journal of Organic Chemistry, 2012).

Data set [1] has as its system T. brucei brucei GUTat 3.1. Briefly: In vitro anti-trypanosomal activity (Alamar Blue). The settings on record: for Selectivity Index (SI): (IC50 for MRC-5)/(IC50 for T. brucei brucei); for IC50: Trypanosoma brucei, read-out: IC50 anti-trypanosomal activity; for IC50 / IC50 anti-trypanosomal activity: 72 h. The format is cell-based, Trypanosoma brucei brucei. As to the method:
With collections of the natural-product-inspired molecules in hand, in vitro anti-trypanosomal activities were evaluated by employing a GUTat 3.1 strain of T. brucei brucei (Table 1) according to the previously reported protocols (Supporting Information File 1). […] Thus, this preliminary assessment supports the idea that the collections of natural-product-inspired scaffolds could have high hit rates against biological screenings, even without having structural information about the biological targets and small-molecule modulators related to the targeted cellular functions. Further screening investigations of the synthetic collections prepared in the four-step process are currently underway in our laboratories.
Assay for in vitro anti-trypanosomal activity against T. brucei species According to a procedure previously used in [Toriizuka et al. Bioorg. Med. Chem. 2008, 16, 10182–10189.], Trypanosoma brucei brucei strain GUTat 3.1 (Glasgow University, Trypanozoon antigenic type 3.1) was generously donated from Dr. Y. Yabu (Nagoya City University). T. brucei brucei GUTat 3.1 strain was cultured in IMDM with 3.024 g/L NaHCO3, 100 μM hypoxanthine, 30 μM thymidine, 40 μM adenosine, 1.0 mM sodium pyruvate, 50 μM L-glutamine, 100 μM 2-mercaptoethanol, 50 U/mL of penicillin, and 50 μg/mL of streptomycin containing 10% heat-inactivated FBS at 37 °C, under 5.0% CO2–95% air, according to the protocol of [Yabu et al.
Southeast Asian J. Trop. Med. Public Health 1998, 29, 591]. In vitro antitrypanosomal activity of the test compounds was evaluated from a dose–response curve utilizing the fluorescent dye, Alamar Blue, according to the method of [Räz et al. Acta Trop. 1997, 68, 139 and Tasdemir et al.
Antimicrob. Agents Chemother. 2006, 50, 1352] with some modifications. Ninety-five microliters of trypanosome suspension ([…] trypanosomes/mL for GUTat 3.1 strain) of bloodstream forms was seeded into a 96-well microplate and 5.0 μL of test compound solution (dissolved in 5.0% dimethylsulfoxide: DMSO) was added. After incubating for 72 h at 37 °C under 5.0% CO2–95% air, 10 μL of Alamar Blue was added to each well. After further incubation for 3–6 h at 37 °C under 5.0% CO2–95% air, the microplate was measured at 528/20 nm excitation wavelength and 590/35 nm emission wavelength with an FLx800 fluorescent plate reader (Bio-Tek Instrument, Inc.Vermont, USA). Data were transferred into a graphic program (Excel) and the 50% inhibitory concentration (IC50) values were determined with fluorescent plate reader software (KC-4, […]
(§1) Cytotoxicity tests on MRC-5 cells
(§2) The human diploid embryonic cell line, MRC-5, was a generous gift from Dr. L. Maes (Tibotec NV, Mechelen, Belgium). Cytotoxicity of the test compound was measured by the colorimetric MTT assay [Mossman, T. J. Immunol. Methods 1983, 65, 55 and Otoguro, K. et al. ATLA:Alternatives to Laboratory Animals 1991, 19, 352] in 96-well microplates. In brief, 100 μL of MRC-5 cell suspension was added to 96-well microplates at 1 × 10^3 cells/well and the cells were cultured for 24 h. Then, 90 μL of standard culture medium (MEM + 10% FCS) with or without 10 μL of test compound solution that was dissolved in 25% ethanol or 5% DMSO was added to each well.
(§3) Further incubation was conducted at 37 °C under 5% CO2–95% air for 7 days and then 20 μL of MTT–PBS solution (5 mg/mL) was added to each well. The microplate was incubated at 37 °C for 4 h under 5% CO2–95% air. Then, the incubation medium was aspirated and 100 μL of DMSO was added to solubilize the MTT formazan product. After mixing, absorbance at 540 nm was measured with iEMS microplate reader MF. The IC50 value was estimated from the dose–response curve.
Background: Alamar Blue is a resazurin reagent that responds to reducing activity.

A short description of data set [2]: Cytotoxicity on MRC-5 cells (MTT assay). The format is cell-based. Particulars: human, MRC-5 cells (human diploid embryonic cell line). As to the method: as §1, §2, §3
Where [3] appears, read: T. brucei brucei GUTat 3.1 strain, 2.0–2.5 × 10^4 trypanosomes/mL.
[4] abbreviates: T. brucei brucei GUTat 3.1 strain.

Values after ≈ are worked out from the molar mass of the structure shown. Read-outs that look alike come from different tables or passages of the source.

What is called IC50 is the midpoint of a concentration-inhibition curve. Take `COc1ccc(CN2C(=O)[C@@]3(C)CCCN4C(=O)[C@]5(C(C)=O)O[C@@]43[C@@]3(c4ccccc4N(S(=O)(=O)c4ccccc4[N+](=O)[O-])[C@H]53)[C@@H]2C(=O)NC(C)(C)C)cc1` (racemic) [25a]: the “Selectivity Index (SI)” value in data set [1] amounted to 4.1. For the same compound, the IC50 in data set [1] (setting [3]) is 5.9 µg/mL (≈ 7.64 µM). In data set [2], the IC50 at 7 days was determined as 24.5 µg/mL (≈ 31.7 µM).
As for `COc1ccc(CN2C(=O)[C@@]3(C)CCCN4C(=O)[C@]5(C(C)=O)O[C@@]43[C@@]3(c4ccccc4N(S(=O)(=O)c4ccccc4[N+](=O)[O-])[C@H]53)[C@H]2C(=O)NC(C)(C)C)cc1` (racemic) [25b], in data set [1] (setting [4]), the “antitrypanosomal activity (in words)” value was “negligible”. In data set [1] (setting [3]), the IC50 was > 12.5 µg/mL.
As to `CC(=O)[C@@]12O[C@@]34N(CCC[C@]3(C)C(=O)N([C@H](C(=O)NC(C)(C)C)c3cn(S(=O)(=O)c5ccccc5[N+](=O)[O-])c5ccccc35)C[C@]43c4ccccc4N(S(=O)(=O)c4ccccc4[N+](=O)[O-])[C@H]13)C2=O` [30b], the “antitrypanosomal activity (in words)” value in data set [1] (setting [4]) was “negligible”. The IC50 in data set [1] was > 12.5 µg/mL.
As for `CC(=O)C12CC3CN(C(C(=O)NC(C)(C)C)c4cn(S(=O)(=O)c5ccccc5[N+](=O)[O-])c5ccccc45)C(=O)C4(C)CCCN(C1=O)C34O2` (stereo not shown) [39a], the “antitrypanosomal activity (in words)” value in data set [1] (setting [4]) is on record as “negligible activities”. The IC50 anti-trypanosomal activity in data set [1] (setting [3]) is >12.5 µg/mL.
On to `CC(=O)C12CC3CN(C(C(=O)NC(C)(C)C)c4cn(S(=O)(=O)c5ccccc5[N+](=O)[O-])c5ccccc45)C(=O)C4(C)CCCN(C1=O)C34O2` (stereo not shown) [39b], for which, in data set [1], the “Selectivity Index (SI)” value came to 8.7. Further, in data set [1] (setting [3]), the IC50 anti-trypanosomal activity is 0.46 µg/mL (≈ 0.665 µM). In data set [2], this compound came in with an IC50 at 7 days of 4.02 µg/mL (≈ 5.81 µM).
As for `CC(=O)[C@@]12C[C@@H]3CN([C@H](C(=O)NC(C)(C)C)c4c[nH]c5ccccc45)C(=O)[C@@]4(C)CCCN(C1=O)[C@@]34O2` [39c], the “antitrypanosomal activity (in words)” value in data set [1] (setting [4]) is reported as “substantial loss of the activities”. Also, in data set [1] (setting [3]), the IC50 is > 12.5 µg/mL.
For `CC(=O)[C@]12O[C@]34[C@@H](CN([C@H](C(=O)NC(C)(C)C)c5cn(S(=O)(=O)c6ccccc6[N+](=O)[O-])c6ccccc56)C(=O)[C@@]3(C)CCCN4C1=O)C2(C)C` [41b], the “Selectivity Index (SI)” value in data set [1] is reported as 5.9. The IC50 in data set [1] (setting [3]) is 5.89 µg/mL (≈ 8.18 µM). In addition, the midpoint of inhibition in data set [2], the IC50 at 7 days, lay at 34.6 µg/mL (≈ 48.1 µM).
`CC(=O)[C@@]12O[C@@]34N(CCC[C@]3(C)N([C@@H](CC(C)C)C(=O)NC(C)(C)C)C(=O)[C@]43c4ccccc4N(S(=O)(=O)c4ccccc4[N+](=O)[O-])[C@H]13)C2=O` [63a]: the “antitrypanosomal activity (in words)” value in data set [1] (setting [4]) was “insignificant activities”.
On the same count and under the same terms, under `CC(=O)C12OC34N(CCCC3(C)N(C(CC(C)C)C(=O)NC(C)(C)C)C(=O)C43c4ccccc4N(S(=O)(=O)c4ccccc4[N+](=O)[O-])C13)C2=O` (stereo not shown) [63b] stands “insignificant activities”.
Turning to `NCCCC(N)(C(=O)O)C(F)F` (stereo not shown) [eflornithine, reference compound], in data set [1], the “Selectivity Index (SI)” value is >44. For the same compound, in data set [1] (setting [3]), the IC50 is 2.27 µg/mL (≈ 12.5 µM). The IC50 at 7 days in data set [2] was > 100 µg/mL.
For `N=C(N)c1ccc(OCCCCCOc2ccc(C(=N)N)cc2)cc1` [pentamidine, reference compound], in data set [1], the “Selectivity Index (SI)” value stood at 3600. In addition, in data set [1] (setting [3]), the IC50 was 0.00158 µg/mL (≈ 0.00464 µM). Moreover, the IC50 at 7 days in data set [2] was determined as 5.71 µg/mL (≈ 16.8 µM).
Regarding `Cc1ccc(C(=O)Nc2ccc(S(=O)(=O)O)c3cc(S(=O)(=O)O)cc(S(=O)(=O)O)c23)cc1NC(=O)c1cccc(NC(=O)Nc2cccc(C(=O)Nc3cc(C(=O)Nc4ccc(S(=O)(=O)O)c5cc(S(=O)(=O)O)cc(S(=O)(=O)O)c45)ccc3C)c2)c1` [suramin, reference compound], in data set [1], the “Selectivity Index (SI)” value is recorded as >63 and the IC50 worked out at 1.58 µg/mL (≈ 1.22 µM). Besides, in data set [2], the IC50 at 7 days was > 100 µg/mL.
